In ChEMBL document CHEMBL1833909, “Synthesis and structure-activity relationships of 4,5-fused pyridazinones as histamine H₃ receptor antagonists” (Bioorg Med Chem Lett, 2011):

Experiments:
Histamine H3 receptor [1] = molecular target: Histamine H3 receptor (Rattus norvegicus, UniProt Q9QYN8); test: Displacement of [3H]-NAMH from rat histamine H3 receptor expressed in CHO cells; type: cell-based
Histamine H3 receptor [2] = molecular target: T1, Histamine H3 receptor (Homo sapiens, UniProt Q9Y5N1); test: biochemical
Cytochrome P450 2C9 = Cytochrome P450 2C9 (Homo sapiens, UniProt P11712); test: Inhibition of CYP2C9; type: ADME
Cytochrome P450 1A2 = molecular target: T2, Cytochrome P450 1A2 (Homo sapiens, UniProt P05177); test: Inhibition of CYP1A2; type: ADME
T2 sequence (P05177 whole entry): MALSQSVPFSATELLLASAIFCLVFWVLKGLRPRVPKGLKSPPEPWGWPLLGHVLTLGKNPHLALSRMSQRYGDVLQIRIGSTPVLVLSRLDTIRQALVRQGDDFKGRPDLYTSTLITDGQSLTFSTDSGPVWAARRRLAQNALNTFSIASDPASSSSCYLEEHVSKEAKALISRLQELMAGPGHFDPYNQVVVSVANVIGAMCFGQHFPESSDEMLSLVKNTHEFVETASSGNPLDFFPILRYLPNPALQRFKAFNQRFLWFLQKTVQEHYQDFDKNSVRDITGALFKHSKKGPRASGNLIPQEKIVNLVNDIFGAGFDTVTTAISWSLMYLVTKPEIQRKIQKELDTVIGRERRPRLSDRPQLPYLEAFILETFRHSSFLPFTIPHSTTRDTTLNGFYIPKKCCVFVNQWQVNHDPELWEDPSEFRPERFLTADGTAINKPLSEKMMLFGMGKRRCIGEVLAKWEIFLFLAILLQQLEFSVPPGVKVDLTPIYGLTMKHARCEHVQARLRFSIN

Cytochrome P450 2C19 = Cytochrome P450 2C19 (Homo sapiens, UniProt P33261); test: Inhibition of CYP2C19; type: ADME
Cytochrome P450 2D6 = Cytochrome P450 2D6 (Homo sapiens, UniProt P10635); test: Inhibition of CYP2D6; type: ADME
Cytochrome P450 3A4 = Cytochrome P450 3A4 (Homo sapiens, UniProt P08684); test: Inhibition of CYP3A4; type: ADME
[3] = Half life in rat at 1 mg/kg, iv; type: ADME, organism-based; set-up: dose 1 mg/kg, route intravenous; settings: in vivo
[4] = AUC in rat at 1 mg/kg, iv; type: ADME, organism-based; set-up: dose 1 mg/kg, route intravenous; settings: plasma
[5] = Volume of distribution in rat at 1 mg/kg, iv; type: ADME, organism-based; set-up: dose 1 mg/kg, route intravenous; settings: in vivo
[6] = Clearance in rat at 1 mg/kg, iv; type: ADME, organism-based; set-up: dose 1 mg/kg, route intravenous; settings: in vivo
[7] = Cmax in rat at 5 mg/kg, po; type: ADME, organism-based; set-up: dose 5 mg/kg, route oral; settings: in vivo
[8] = Oral bioavailability in rat at 5 mg/kg; type: ADME, organism-based; settings: in vivo
[9] = Ratio of drug level in brain to plasma in ip dosed rat after 1 hr; type: ADME, organism-based; settings: read-out: BPR
Histamine H3 receptor [10] = molecular target: T1, Histamine H3 receptor; test: Antagonist activity at recombinant human histamine H3 receptor assessed as inhibition of RAMH-induced [35S]GTPgammaS binding; type: functional
Histamine H3 receptor [11] = molecular target: T1, Histamine H3 receptor; test: Inverse agonist activity at human histamine H3 receptor assessed as decrease of basal activity of [35S]GTPgammaS binding; type: functional
[12] = Half life in dog liver microsomes; type: ADME, Canis lupus familiaris, Microsome
[13] = Half life in rat liver microsomes; type: ADME, Microsome
[14] = Half life in human liver microsomes; type: ADME, Microsome
[15] = AUC in rat at 5 mg/kg, po; type: ADME, organism-based; set-up: dose 5 mg/kg, route oral; settings: plasma
[16] = molecular target: Histamine H1 receptor (Homo sapiens) (UniProt P35367); test: Inhibition of human histamine H1 receptor at 10 uM
[17] = molecular target: Histamine H2 receptor (Homo sapiens) (UniProt P25021); test: Inhibition of human histamine H2 receptor at 10 uM
[18] = molecular target: Histamine H4 receptor (Homo sapiens) (UniProt Q9H3N8); test: Inhibition of human histamine H4 receptor at 10 uM
[19] = molecular target: Sodium-dependent noradrenaline transporter (Homo sapiens) (UniProt P23975); test: Inhibition of norepinephrine transporter at 10 uM
[20] = Inhibition of dihydropyridine site of calcium channel at 10 uM
hERG (KCNH2) = hERG (KCNH2) (Homo sapiens, UniProt Q12809); test: Inhibition of human ERG at 10 uM by patch clamp assay
Chain of hERG (KCNH2) (Q12809 whole entry): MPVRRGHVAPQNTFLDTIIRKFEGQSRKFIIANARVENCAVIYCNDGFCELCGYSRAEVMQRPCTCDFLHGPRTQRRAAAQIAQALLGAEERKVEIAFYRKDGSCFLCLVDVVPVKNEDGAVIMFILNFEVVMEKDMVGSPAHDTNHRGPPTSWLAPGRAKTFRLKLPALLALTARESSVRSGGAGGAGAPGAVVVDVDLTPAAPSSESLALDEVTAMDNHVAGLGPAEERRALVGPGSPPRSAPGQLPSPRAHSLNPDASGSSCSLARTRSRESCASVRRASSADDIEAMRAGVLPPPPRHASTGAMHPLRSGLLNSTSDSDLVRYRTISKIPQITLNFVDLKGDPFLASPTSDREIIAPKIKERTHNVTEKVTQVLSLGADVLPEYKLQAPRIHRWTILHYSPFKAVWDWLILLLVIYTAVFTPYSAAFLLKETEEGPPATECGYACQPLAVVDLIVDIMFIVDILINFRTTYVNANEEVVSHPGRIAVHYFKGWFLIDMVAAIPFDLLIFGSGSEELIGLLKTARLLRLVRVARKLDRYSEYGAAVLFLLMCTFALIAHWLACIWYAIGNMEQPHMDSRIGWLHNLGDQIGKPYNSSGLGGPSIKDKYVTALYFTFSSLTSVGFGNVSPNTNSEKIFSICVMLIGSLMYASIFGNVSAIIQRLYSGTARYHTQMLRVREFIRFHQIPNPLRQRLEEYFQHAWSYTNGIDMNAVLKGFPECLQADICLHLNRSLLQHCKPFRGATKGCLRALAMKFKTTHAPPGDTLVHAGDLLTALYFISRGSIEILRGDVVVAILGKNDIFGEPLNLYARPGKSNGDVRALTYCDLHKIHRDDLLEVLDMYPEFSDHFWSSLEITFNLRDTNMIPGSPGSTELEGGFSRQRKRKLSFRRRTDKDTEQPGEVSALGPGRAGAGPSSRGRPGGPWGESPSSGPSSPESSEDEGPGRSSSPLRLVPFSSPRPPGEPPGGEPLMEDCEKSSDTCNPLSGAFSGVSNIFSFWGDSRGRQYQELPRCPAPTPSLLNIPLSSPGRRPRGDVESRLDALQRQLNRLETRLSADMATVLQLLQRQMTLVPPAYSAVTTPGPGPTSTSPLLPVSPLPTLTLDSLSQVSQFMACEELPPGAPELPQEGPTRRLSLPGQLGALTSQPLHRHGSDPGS

Chain of Cytochrome P450 2C9 (P11712 whole entry): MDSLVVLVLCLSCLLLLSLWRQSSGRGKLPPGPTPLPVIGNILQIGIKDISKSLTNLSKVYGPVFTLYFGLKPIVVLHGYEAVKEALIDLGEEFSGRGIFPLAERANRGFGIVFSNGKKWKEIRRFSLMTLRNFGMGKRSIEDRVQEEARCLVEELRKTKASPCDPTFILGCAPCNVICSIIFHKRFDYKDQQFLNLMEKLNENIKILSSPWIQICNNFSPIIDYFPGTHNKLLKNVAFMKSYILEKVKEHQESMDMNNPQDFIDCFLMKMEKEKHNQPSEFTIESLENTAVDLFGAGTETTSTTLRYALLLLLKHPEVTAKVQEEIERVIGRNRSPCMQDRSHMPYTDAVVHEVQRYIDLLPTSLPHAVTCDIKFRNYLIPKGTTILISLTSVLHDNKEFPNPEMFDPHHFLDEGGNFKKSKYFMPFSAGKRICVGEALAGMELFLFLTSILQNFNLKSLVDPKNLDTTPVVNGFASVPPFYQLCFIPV
Chain of Cytochrome P450 2D6 (P10635 whole entry): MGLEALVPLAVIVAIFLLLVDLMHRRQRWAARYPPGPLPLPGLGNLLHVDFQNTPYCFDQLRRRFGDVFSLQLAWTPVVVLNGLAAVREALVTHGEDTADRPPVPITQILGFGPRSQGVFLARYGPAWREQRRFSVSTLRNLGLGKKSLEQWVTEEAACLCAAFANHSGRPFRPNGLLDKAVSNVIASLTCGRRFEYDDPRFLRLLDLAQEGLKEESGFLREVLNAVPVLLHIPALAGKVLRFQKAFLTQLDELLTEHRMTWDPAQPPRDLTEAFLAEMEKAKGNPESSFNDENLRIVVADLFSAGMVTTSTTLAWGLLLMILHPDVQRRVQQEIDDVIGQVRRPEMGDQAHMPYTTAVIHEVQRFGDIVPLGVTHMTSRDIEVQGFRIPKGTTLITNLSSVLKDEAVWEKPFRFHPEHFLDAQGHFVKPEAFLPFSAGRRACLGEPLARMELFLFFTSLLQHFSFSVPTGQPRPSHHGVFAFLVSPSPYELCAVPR
Chain of Histamine H3 receptor (Rattus norvegicus, UniProt Q9QYN8) (Q9QYN8 whole entry): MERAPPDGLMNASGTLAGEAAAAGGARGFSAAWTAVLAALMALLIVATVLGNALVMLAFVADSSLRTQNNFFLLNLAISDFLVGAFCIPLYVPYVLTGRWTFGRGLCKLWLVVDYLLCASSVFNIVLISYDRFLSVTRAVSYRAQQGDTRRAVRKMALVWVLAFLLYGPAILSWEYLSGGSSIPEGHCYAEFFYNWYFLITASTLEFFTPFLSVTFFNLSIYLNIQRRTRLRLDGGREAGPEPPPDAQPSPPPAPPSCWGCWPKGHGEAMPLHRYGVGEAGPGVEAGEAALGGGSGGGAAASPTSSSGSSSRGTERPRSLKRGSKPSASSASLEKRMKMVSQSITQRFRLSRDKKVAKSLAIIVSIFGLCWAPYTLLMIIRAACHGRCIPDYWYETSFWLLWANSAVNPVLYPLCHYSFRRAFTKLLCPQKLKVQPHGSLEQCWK
Chain of Cytochrome P450 2C19 (P33261 whole entry): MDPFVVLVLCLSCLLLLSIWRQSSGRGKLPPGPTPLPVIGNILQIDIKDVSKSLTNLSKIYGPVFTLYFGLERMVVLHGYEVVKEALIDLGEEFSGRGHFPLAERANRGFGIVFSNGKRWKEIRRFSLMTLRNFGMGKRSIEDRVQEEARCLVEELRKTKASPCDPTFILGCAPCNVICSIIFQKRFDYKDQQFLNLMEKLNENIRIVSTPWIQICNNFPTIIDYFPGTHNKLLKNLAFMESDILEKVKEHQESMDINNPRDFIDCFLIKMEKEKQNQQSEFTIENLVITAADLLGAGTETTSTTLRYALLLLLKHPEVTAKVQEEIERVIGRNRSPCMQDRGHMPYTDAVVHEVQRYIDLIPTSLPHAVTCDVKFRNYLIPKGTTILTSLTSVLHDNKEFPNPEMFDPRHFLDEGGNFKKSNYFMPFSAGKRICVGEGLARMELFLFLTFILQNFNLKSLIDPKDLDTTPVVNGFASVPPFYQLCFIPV
Chain of Cytochrome P450 3A4 (P08684 whole entry): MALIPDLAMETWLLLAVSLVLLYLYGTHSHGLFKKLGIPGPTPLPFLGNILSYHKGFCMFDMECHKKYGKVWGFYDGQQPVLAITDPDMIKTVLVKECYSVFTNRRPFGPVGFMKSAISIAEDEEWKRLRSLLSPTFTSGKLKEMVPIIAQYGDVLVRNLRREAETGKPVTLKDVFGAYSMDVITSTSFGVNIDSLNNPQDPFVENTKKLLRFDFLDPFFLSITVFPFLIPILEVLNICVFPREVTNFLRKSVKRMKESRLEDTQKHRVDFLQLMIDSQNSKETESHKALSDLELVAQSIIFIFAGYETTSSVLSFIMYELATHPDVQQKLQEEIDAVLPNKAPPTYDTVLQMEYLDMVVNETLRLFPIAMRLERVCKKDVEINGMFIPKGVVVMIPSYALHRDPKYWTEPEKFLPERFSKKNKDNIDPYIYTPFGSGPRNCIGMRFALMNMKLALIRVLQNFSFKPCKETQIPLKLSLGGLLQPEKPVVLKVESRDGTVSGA
T1 sequence (Q9Y5N1 whole entry): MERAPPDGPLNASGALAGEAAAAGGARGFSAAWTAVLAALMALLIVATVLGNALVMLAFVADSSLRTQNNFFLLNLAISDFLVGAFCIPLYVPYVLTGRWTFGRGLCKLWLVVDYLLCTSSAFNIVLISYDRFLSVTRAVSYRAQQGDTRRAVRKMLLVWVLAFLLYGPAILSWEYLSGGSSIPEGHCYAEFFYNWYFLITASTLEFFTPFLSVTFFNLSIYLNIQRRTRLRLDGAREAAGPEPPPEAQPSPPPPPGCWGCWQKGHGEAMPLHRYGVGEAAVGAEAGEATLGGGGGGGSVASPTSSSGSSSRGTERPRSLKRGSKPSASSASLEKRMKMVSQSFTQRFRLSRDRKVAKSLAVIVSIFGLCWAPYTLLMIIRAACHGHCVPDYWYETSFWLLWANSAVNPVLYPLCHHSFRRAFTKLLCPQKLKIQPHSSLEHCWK
Chain of Histamine H2 receptor (Homo sapiens) (P25021 whole entry): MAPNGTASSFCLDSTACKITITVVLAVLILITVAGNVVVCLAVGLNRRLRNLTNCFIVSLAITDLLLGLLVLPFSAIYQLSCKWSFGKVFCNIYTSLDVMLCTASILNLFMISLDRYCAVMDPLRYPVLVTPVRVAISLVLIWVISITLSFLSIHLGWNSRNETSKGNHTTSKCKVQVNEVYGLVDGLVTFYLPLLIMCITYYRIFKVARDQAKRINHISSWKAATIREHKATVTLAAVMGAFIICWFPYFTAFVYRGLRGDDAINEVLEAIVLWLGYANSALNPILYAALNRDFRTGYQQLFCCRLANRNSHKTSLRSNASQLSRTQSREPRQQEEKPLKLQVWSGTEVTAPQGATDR
Chain of Sodium-dependent noradrenaline transporter (Homo sapiens) (P23975 whole entry): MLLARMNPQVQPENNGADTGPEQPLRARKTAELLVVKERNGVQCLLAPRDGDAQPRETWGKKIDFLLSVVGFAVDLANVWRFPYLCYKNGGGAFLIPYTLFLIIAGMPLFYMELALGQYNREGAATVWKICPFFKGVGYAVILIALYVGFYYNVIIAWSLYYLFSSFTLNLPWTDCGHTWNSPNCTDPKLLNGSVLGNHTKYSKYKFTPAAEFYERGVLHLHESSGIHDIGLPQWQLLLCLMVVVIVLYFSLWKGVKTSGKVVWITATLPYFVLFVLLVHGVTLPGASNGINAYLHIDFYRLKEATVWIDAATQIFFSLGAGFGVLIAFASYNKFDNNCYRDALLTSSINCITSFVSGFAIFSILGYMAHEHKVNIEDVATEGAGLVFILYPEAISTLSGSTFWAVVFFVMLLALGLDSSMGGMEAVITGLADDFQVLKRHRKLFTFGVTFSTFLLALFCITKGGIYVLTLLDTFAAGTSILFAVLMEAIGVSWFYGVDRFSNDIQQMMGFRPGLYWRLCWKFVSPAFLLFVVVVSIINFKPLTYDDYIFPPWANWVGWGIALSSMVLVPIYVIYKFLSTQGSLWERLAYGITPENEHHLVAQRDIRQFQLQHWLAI

SMILES | Ki (Histamine H3 receptor [1]) [nM] | Ki (Histamine H3 receptor [2]) [nM] | IC50 (Cytochrome P450 2C9) [nM] | IC50 (Cytochrome P450 1A2) [nM] | IC50 (Cytochrome P450 2C19) [nM] | IC50 (Cytochrome P450 2D6) [nM] | IC50 (Cytochrome P450 3A4) [nM] | other results
O=c1c2ccccc2c(-c2ccc(OCCCN3CCCCC3)cc2)nn1Cc1ccc(Cl)cc1 | 23 | 11 |  |  |  |  |  | 
CC(C)n1nc(-c2ccc(OCCCN3CCC[C@H]3C)cc2)c2sccc2c1=O | 8.3 | 2.6 | > 30000 | > 30000 | > 30000 | > 30000 | > 30000 | half-life [3]: 18 min; AUC [4]: 160 ng·h/mL; Vd [5]: 2.98 L/kg; clearance [6]: 117 mL/min/kg; Cmax [7]: < 5 ng/mL; bioavailability [8]: < 1%; Kp at 1 h [9]: 4.07
CC(C)n1nc(-c2ccc(OCCCN3CCCC3)cc2)c2sccc2c1=O | 7 | 4 |  |  |  |  |  | 
CCCn1nc(-c2ccc(OCCCN3CCC(C)CC3)cc2)c2sccc2c1=O | 58 | 23 |  |  |  |  |  | 
Cn1nc(-c2ccc(OCCN3CCCCC3)cc2)c2ccccc2c1=O | > 1000 | 84 |  |  |  |  |  | 
Cn1nc(-c2ccc(OCCCN3CCCCC3)cc2)c2c(c1=O)CCC2 | 4.3 | 0.5 | > 30000 | > 30000 | > 30000 | > 30000 | > 30000 | Kb (Histamine H3 receptor [10]): 0.2 nM; EC50 (Histamine H3 receptor [11]): 0.8 nM
CC(C)n1nc(-c2ccc(OCCCN3CCCCC3)cc2)c2sccc2c1=O | 19 | 1.9 |  |  |  |  |  | 
CCCn1nc(-c2ccc(OCCCN3CCC[C@H]3C)cc2)c2sccc2c1=O | 12 | 1.5 |  |  |  |  |  | 
Cn1nc(-c2ccc(OCCCN3CCCCC3)cc2)c2ccccc2c1=O | 9 | 0.8 | > 30000 | > 30000 | > 30000 | > 30000 | > 30000 | half-life [12]: > 40 min; half-life [13]: > 40 min; half-life [14]: > 40 min; half-life [3]: 18 min; AUC [4]: 402 ng·h/mL; Vd [5]: 1.36 L/kg; clearance [6]: 52 mL/min/kg; AUC [15]: 14 ng·h/mL; Cmax [7]: 20 ng/mL; bioavailability [8]: < 1%; Kp at 1 h [9]: 2.98
C[C@@H]1CCCN1CCCOc1ccc(-c2nn(C)c(=O)c3c2CCCC3)cc1 | 1.2 | 0.8 | > 30000 | > 30000 | > 30000 | > 30000 | > 30000 | 
C[C@@H]1CCCN1CCCOc1ccc(-c2nn(Cc3ccc(Cl)cc3)c(=O)c3ccccc23)cc1 | 12 | 4.6 |  |  |  |  |  | 
Cn1nc(-c2ccc(OCCCN3CCCC3)cc2)c2ccccc2c1=O | 3.6 | 1.7 |  |  |  |  |  | 
COC[C@@H]1CCCN1CCCOc1ccc(-c2nn(C(C)C)c(=O)c3ccsc23)cc1 | 1170 | 50 |  |  |  |  |  | 
C[C@@H]1CCCN1CCCOc1ccc(C2=NN(C)C(=O)C3CCCC23)cc1 (some centres not stated) | 4.7 | 1.6 | > 30000 | > 30000 | > 30000 | > 30000 | > 30000 | 
C[C@@H]1CCCN1CCCOc1ccc(-c2nn(C)c(=O)c3ccccc23)cc1 | 3.8 | 0.8 |  |  |  |  |  | 
O=c1c2ccsc2c(-c2ccc(OCCCN3CCCCC3)cc2)nn1Cc1ccc(Cl)cc1 | 143 | 48 |  |  |  |  |  | 
C[C@@H]1CCCN1CCCOc1ccc(-c2nn(Cc3ccc(Cl)cc3)c(=O)c3ccsc23)cc1 | 12 | 2.4 |  |  |  |  |  | 
CCN(CC)CCCOc1ccc(-c2nn(C(C)C)c(=O)c3ccsc23)cc1 | 167 | 23 |  |  |  |  |  | 
Cn1nc(-c2ccc(OCCCN3CCCCC3)cc2)c2c(c1=O)CCCC2 | 4.5 | 1.5 | > 30000 | > 30000 | > 30000 | > 30000 | > 30000 | 
C[C@@H]1CCCN1CCCOc1ccc(-c2nn(C)c(=O)c3c2CCC3)cc1 | 2 | 0.4 | > 30000 | > 30000 | > 30000 | > 30000 | > 30000 | inhibition [16]: < 30%; inhibition [17]: < 30%; inhibition [18]: < 30%; inhibition [19]: 60%; inhibition [20]: 68%; inhibition at 10 µM (hERG (KCNH2)): 23%; Kb (Histamine H3 receptor [10]): 0.2 nM; EC50 (Histamine H3 receptor [11]): 0.8 nM; half-life [3]: 15.6 min; AUC [4]: 182 ng·h/mL; Vd [5]: 3.35 L/kg; clearance [6]: 163 mL/min/kg; AUC [15]: 5.82 ng·h/mL; Cmax [7]: 7 ng/mL; bioavailability [8]: < 1%; Kp at 1 h [9]: 1.2
Cn1nc(-c2ccc(OCCCN3CCCCCC3)cc2)c2ccccc2c1=O | 1.8 | 1.4 |  |  |  |  |  | 
COC[C@H]1CCCN1CCCOc1ccc(-c2nn(C(C)C)c(=O)c3ccsc23)cc1 | > 3000 | 1120 |  |  |  |  |  | 
CN1N=C(c2ccc(OCCCN3CCCCC3)cc2)C2CCCC2C1=O (configuration not stated) | 9.4 | 2.3 | > 30000 | > 30000 | > 30000 | > 30000 | > 30000 | 
